# Measured values taken from the supplement of paper PMC10307832.
# Assays:
# Assay in all cases: relative viability (nuclei count vs DMSO), 5 days (fraction); higher = more cells survive
# NVP-TAE684 + AZD7762 = compound: COc1cc(N2CCC(N3CCN(C)CC3)CC2)ccc1Nc1ncc(Cl)c(Nc2ccccc2S(=O)(=O)C(C)C)n1 [NVP-TAE684] + NC(=O)Nc1cc(-c2cccc(F)c2)sc1C(=O)N[C@H]1CCCNC1 [AZD7762] (partner 0.2 µM)
# In short: (§1)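 Lung cancer cell lines were seeded in 1536-well plates and dosed by pin tool the next day, with either a single drug or a fixed anchor-drug dose combined with five library-drug doses (not always all listed) spaced in √10 steps. Five days later, one step fixed the cells and stained their nuclei (final 0.05% Triton X-100, 1% formaldehyde, 1 ug/ml Hoechst), and nuclei were counted on 4× images. Relative viability is the nuclei count in treated wells divided by the count in vehicle wells, and each value is the median of duplicate plates.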
# NVP-TAE684 + Bortezomib = compound: COc1cc(N2CCC(N3CCN(C)CC3)CC2)ccc1Nc1ncc(Cl)c(Nc2ccccc2S(=O)(=O)C(C)C)n1 [NVP-TAE684] + CC(C)C[C@H](NC(=O)[C@H](Cc1ccccc1)NC(=O)c1cnccn1)B(O)O [Bortezomib] (partner 0.002 µM)
# In short: as §1
# Vandetanib + Foretinib = compound: COc1cc2/c(=N/c3ccc(Br)cc3F)nc[nH]c2cc1OCC1CCN(C)CC1 [Vandetanib] + COc1cc2c(Oc3ccc(NC(=O)C4(C(=O)Nc5ccc(F)cc5)CC4)cc3F)ccnc2cc1OCCCN1CCOCC1 [Foretinib] (partner 0.25 µM)
# In short: as §1
# NVP-TAE684 + Vorinostat = compound: COc1cc(N2CCC(N3CCN(C)CC3)CC2)ccc1Nc1ncc(Cl)c(Nc2ccccc2S(=O)(=O)C(C)C)n1 [NVP-TAE684] + O=C(CCCCCCC(=O)Nc1ccccc1)NO [Vorinostat] (partner 1 µM)
# In short: as §1
# [1] = compound: C1=CC=C2C(=C1)N=C(S2)C(C#N)C3=NC(=NC=C3)NCCC4=CN=CC=C4 + O=C(c1cc(Cc2n[nH]c(=O)c3ccccc23)ccc1F)N1CCN(C(=O)C2CC2)CC1 [Olaparib] (partner 8 µM)
# In short: as §1
Cell Line,relative viability (NVP-TAE684 + AZD7762; first compound 0.2 µM),relative viability (NVP-TAE684 + AZD7762; first compound 0.6325 µM),relative viability (NVP-TAE684 + AZD7762; first compound 2 µM),relative viability (NVP-TAE684 + Bortezomib; first compound 0.2 µM),relative viability (NVP-TAE684 + Bortezomib; first compound 0.6325 µM),relative viability (NVP-TAE684 + Bortezomib; first compound 2 µM),relative viability (Vandetanib + Foretinib; first compound 0.02 µM),relative viability (Vandetanib + Foretinib; first compound 0.06325 µM),relative viability (Vandetanib + Foretinib; first compound 0.2 µM),relative viability (Vandetanib + Foretinib; first compound 0.6325 µM),relative viability (Vandetanib + Foretinib; first compound 2 µM),relative viability (NVP-TAE684 + Vorinostat; first compound 0.2 µM),relative viability (NVP-TAE684 + Vorinostat; first compound 0.6325 µM),relative viability (NVP-TAE684 + Vorinostat; first compound 2 µM),relative viability ([1]; first compound 0.005 µM),relative viability ([1]; first compound 0.01581 µM),relative viability ([1]; first compound 0.05 µM),relative viability ([1]; first compound 0.1581 µM),relative viability ([1]; first compound 0.5 µM)
HCC-78,0.603,0.52,0.376,0.428,0.381,0.307,0.546,0.606,0.524,0.57,0.432,0.316,0.411,0.23,0.852,0.935,0.816,0.936,0.756
NCI-H2085,0.991,0.953,0.797,0.95,0.926,0.955,0.935,0.852,0.351,0.993,0.836,0.817,0.755,0.725,0.765,0.765,0.738,0.778,0.794
HARA,0.305,0.286,0.258,1.31,1.1,1.05,0.889,0.753,0.36,0.89,0.735,0.525,0.464,0.23,0.773,0.659,0.942,0.822,0.954
201T,0.669,0.79,0.521,1.11,1.01,1.11,1.08,0.996,1.06,1.15,1,1.02,1,0.831,0.829,0.837,0.802,0.905,0.706
EMC-BAC-2,1.12,,0.536,,1.01,0.734,0.996,0.934,0.307,0.965,0.958,0.46,0.338,0.393,0.512,0.481,0.469,0.476,0.427
NCI-H441,1.12,1.04,0.598,0.516,0.358,0.204,1.05,0.816,0.264,0.978,1.01,0.972,0.688,0.56,0.423,0.643,0.544,0.683,0.455
NCI-H727,0.588,0.58,0.344,0.684,0.887,0.506,0.973,0.831,0.539,1.18,0.674,1.09,1.25,0.869,0.734,0.622,0.806,0.746,0.679
NCI-H1993,0.772,0.826,0.584,,1.09,0.806,0.836,0.78,0.557,0.788,0.64,0.713,0.695,0.48,0.903,1.06,1.18,0.986,1.06
ChaGo-K-1,1.02,0.836,,1.18,0.691,0.952,0.958,0.962,0.939,0.936,0.905,0.786,0.691,0.518,0.372,0.425,0.408,0.421,0.402
NCI-H3122,0.22,0.184,0.127,0.763,0.218,0.162,0.984,0.972,0.888,0.944,0.94,0.273,0.229,0.103,0.671,0.655,0.691,0.788,0.885
NCI-H1651,0.423,0.48,0.401,0.987,0.98,0.93,0.938,0.721,0.13,0.786,0.708,0.635,0.537,0.508,0.178,0.17,0.172,0.182,0.163
NCI-H1355,0.862,0.691,0.479,1.23,1.17,0.859,0.94,0.981,1,0.936,0.946,0.561,0.605,0.327,0.704,0.761,0.764,0.825,0.769
NCI-H596,1.03,0.988,0.839,1.3,0.919,,0.918,0.785,0.741,0.838,0.731,0.565,0.578,0.647,0.599,0.59,0.608,0.632,0.643
NCI-H23,0.24,0.209,0.151,0.867,0.993,0.54,0.917,1,0.304,0.947,0.898,0.844,0.463,0.362,,0.33,0.276,0.303,0.282
HCC-366,0.269,0.194,0.218,0.855,1.08,1.17,1.02,0.941,0.501,0.893,0.907,0.365,0.311,0.239,0.189,0.449,0.349,0.372,0.354
NCI-H2126,1.03,1.01,0.684,1.09,1.07,0.958,1.17,1.16,1.11,1.14,1.11,0.808,0.732,0.443,0.771,0.945,0.887,0.978,0.75
